In the experiment the test system is Gli-responsive luciferase reporter cells, SUFU pathway antagonism. In words: blockers of Gli reporter signaling – cell-based, luciferase luminescence, uHTS hits, dose response (AID 602464).

As a reminder, the pIC50 is −log10 of the IC50, conventionally taken in molar units. By IC50 is commonly meant the concentration that inhibits the measured activity by half.

pIC50: −log10 of the molar value. Activity calls are given as the source filed them. Rule as the data show it: active = IC50 below about 20 µM; inactive = the rest.

Turning to `COc1ccc(N2CCN(c3ncnc4c3[nH]c3ccccc34)CC2)cc1`, the negative-log IC50 (pIC50) is 5.60.
On the same count and under the same terms, to `COc1ccc(CCNc2ncnc3c2oc2ccccc23)cc1OC` belongs 5.57.
In the case of `Cc1ccc(-c2csc(NC(=O)c3c(C)noc3C)n2)s1`, the pIC50 was 5.26.
For `Cc1nn(C)c(C)c1/C=C/C(=O)c1ccc(Cl)cc1Cl`, the pIC50 is 5.12.
For `O=C(N[C@@H]1C/C=C\C[C@H](CC(=O)N(CCO)Cc2ccccc2)C(=O)NC[C@@H](c2ccccc2)OC1=O)OCC1c2ccccc2-c2ccccc21`, the negative-log IC50 (pIC50) was 5.20.
Same read-out and setting: to `Brc1ccc(-c2csc(N3CCCCCC3)n2)cc1` belongs 5.99; to `COc1cccc(/C=C/c2ccncc2)c1OC`, 5.05; to `Cc1cc(-c2ccccc2)cc(-c2ccccc2)[n+]1C`, 5.35.
On to `Cc1nn(Cc2noc(C(=O)NC3CCC(C)CC3)n2)c(C)c1Br` (stereo unspecified), for which the pIC50 is 5.07.
For the compound `COCCNC(=O)CSCc1nc(-c2ccc(SC)cc2)oc1C`, the pIC50 is 5.07.
For `O=C(C[C@@H]1C/C=C\C[C@@H](NC(=O)OCC2c3ccccc3-c3ccccc32)C(=O)OC[C@@H](Cc2ccccc2)NC1=O)NCCO`, the negative-log IC50 (pIC50) is 5.00.
Still for that read-out and setting: to `Cc1ccc(-c2c[n+](Cc3ccc(Cl)c(Cl)c3)c3n2CCC3)cc1` belongs 5.55; to `CC[C@@H](O)C[C@H]1CCC[C@@]2(C[C@@H]3OC(=O)/C=C/[C@@](C)(O)[C@@H](O)[C@H](C)[C@@H](O)[C@H](OC4CCC(N(C)C)C(C)O4)[C@@H](O)[C@](C)(O)CCCCC/C=C/[C@@H]4CC(C)(C)O[C@@]4(O)C[C@H](O2)[C@H]3C)O1` (stereo partly specified), more than 8.01.
With `CC(C)C(=O)N1CCN(c2ccccc2NC(=O)COc2ccccc2)CC1`, the IC50 was > 20 µM (inactive).
`CC(C)(C)c1ccc(CN2C3=NCCCN3c3ccccc32)cc1`: the pIC50 was 5.42.
Still for that read-out and setting: to `CC(C)CCOC(=O)C[N+](C)(C)CCOC1CC2CCC1(C)C2(C)C` (stereo unspecified) belongs 5.29; to `CC1C(OC(=O)CCC(=O)NC(C)(C)CO)O[C@H]2OC3(C)CC[C@H]4[C@H](C)CCC1C24OO3` (stereo partly specified), 6.43.
Still for that read-out and setting: with `CC(=O)c1cccc(NS(=O)(=O)c2ccc(-c3cnc(C4CC4)o3)cc2)c1` the figure was 5.09; with `Cc1cc(C)nc(/N=C(\N)Nc2ccccc2-c2ccccc2)n1`, 4.89; with `COc1ccc(NS(=O)(=O)c2ccc(NC(C)=O)cc2)cc1OC`, 5.10.
Regarding `S=C(Nc1ccccc1)N1CCC(Cc2ccccc2)CC1`, the pIC50 is 5.25.
In the case of `CCOc1ccc(-n2c(-c3ccc(Cl)cc3)c[n+]3c2SCC3)cc1`, the pIC50 is 5.46.
With `COc1cccc2nc3c(C(=O)NCCN(C)C)cccc3cc12`, the negative-log IC50 (pIC50) is 5.52.
Take `CN1/C(=C\C=Nc2ccccc2)C(C)(C)c2ccccc21`: the negative-log IC50 (pIC50) was 5.22.
As to `O=c1c2ccccc2sc2c(CO)ccc(NCCN3CCCCC3)c12`, the IC50 is > 20 µM (inactive).
Consider `CN(CCOc1ccc(Cl)cc1)C(=O)c1cccc(S(=O)(=O)N2CCN(c3ccc(F)cc3)CC2)c1`, for which the pIC50 is 5.25.
On the same count and under the same terms, to `Cc1ccc(Cl)cc1N1CCN(C(=O)CSc2nnc3n2C(C)(C)Cc2ccccc2-3)CC1` belongs 5.12; to `COc1cc(C(=O)NC2CCN(C)CC2)ccc1Nc1ncc2c(n1)N(C1CCCCC1)CCC(=O)N2C`, 5.80.
Still for that read-out and setting: with `CCn1c(=NC(=O)CCS(=O)(=O)c2ccccc2)sc2cccc(OC)c21` the figure was 5.51; with `CC1Sc2n(c3ccccc3[n+]2C)N=C1c1ccccc1` (stereo unspecified), 5.33; with `Cc1sc2ncnc(NCC(O)c3ccc([N+](=O)[O-])cc3)c2c1C` (stereo unspecified), 5.32.
Take `CCCCCCCNC1=CC(=O)CC(c2ccccc2)C1` (stereo unspecified): the negative logarithm of the IC50 (pIC50) was 5.09.
Same read-out and setting: to `Cc1ccc(S(=O)(=O)N2CCN(C(=O)C3CCN(c4ncnc5sc(C)c(C)c45)CC3)CC2)c(C)c1` belongs 5.12; to `CCN(CC)C(=O)c1ccc(S(=O)(=O)N2CCC(c3nc4ccccc4s3)CC2)cc1`, 5.05.
The same measure, in the same setting: with `CC1CCN(c2c(NCc3ccc(C(=O)N4c5ccccc5CC4C)cc3)c(=O)c2=O)CC1` (stereo unspecified) the figure was 5.29; with `CC(C)(C)c1ccc(C(=O)NC(=S)Nc2ccc(N3CCOCC3)cc2)cc1`, 5.04; with `FC(F)Oc1ccc(-n2cc(-c3ccccc3)[n+]3c2CCCCC3)cc1`, 5.09.
On the same count and under the same terms, with `COc1ccc(OC)c(Cc2cnc3nc(N)nc(N)c3c2C)c1` the figure was 5.55.
With `C=CCNc1nc2c(c(=O)n(C)c(=O)n2C)n1Cc1ccc(F)cc1`, the pIC50 is 5.21.
Consider `C=CCOC(=O)c1[nH]c2c(c1C)C(=O)CC(c1cc(OC)c(OC)c(OC)c1)C2` (stereo unspecified), for which the pIC50 is 5.70.
For `C[n+]1c2n(c3ccccc31)N=C(c1ccc(-c3ccccc3)cc1)CS2`, the negative-log IC50 (pIC50) was 5.88.
Take `O=C(Nc1ccncc1)c1ccc(-c2ccccc2)cc1`: the negative-log IC50 (pIC50) is 5.19.
The same measure, in the same setting: to `C=CCOc1nc2c(c(=O)n(C)c(=O)n2C)n1Cc1ccc(Cl)cc1Cl` belongs 4.99.
Take `O=C(C[n+]1cc(-c2ccccc2)n2c1CCCCC2)c1ccc(Cl)cc1`: the IC50 was > 20 µM (inactive).
As for `COCCOc1nc2c(c(=O)n(C)c(=O)n2C)n1Cc1cccc(OC)c1`, the negative-log IC50 (pIC50) was 5.02.
The same measure, in the same setting: to `CC(C)C[C@H]1CN=C(N(C)C)N1CCCCc1ccccc1` belongs 5.10.
In the case of `COc1ccccc1C(=O)NC(=S)/C=C1/N(C)c2ccccc2C1(C)C`, the negative logarithm of the IC50 (pIC50) is 5.07.
Still for that read-out and setting: with `CC(Sc1nc2ccccc2c(=O)n1C)C(=O)N(C)C1CCCCC1` (stereo unspecified) the figure was 5.40; with `O=C(N/N=C/c1cc2ccccc2nc1Cl)[C@H]1C[C@@H]1c1ccccc1`, 4.79.
Turning to `CCCn1c2c(c(=N)c3c1CCC3)CCCC2`, the negative logarithm of the IC50 (pIC50) is 4.96.
Same read-out and setting: to `Cc1ccc(C)c(N2CC(O)(c3cccs3)[N+]3=C2CCCC3)c1` (stereo unspecified) belongs 4.98.
With `CCCCOC(=O)c1[nH]c2c(c1C)C(=O)CC(c1cc(OC)c(OC)c(OC)c1)C2` (stereo unspecified), the negative logarithm of the IC50 (pIC50) was 5.65.
Still for that read-out and setting: with `CC(=O)c1cn(CCOc2ccccc2C)c2ccccc12` the figure was 5.07; with `CCOC(=O)c1c(NC(=O)COc2cccc3c2CCN(C)C3=O)sc2c1CCC2`, 5.07; with `COc1ccc(-n2c(-c3ccc(Cl)cc3)c[n+]3c2CCc2ccccc2-3)cc1`, 5.75.
On to `CC1CCC(NC(=O)c2cccc(S(=O)(=O)N3CCN(c4ccccc4)CC3)c2)CC1` (stereo unspecified), for which the pIC50 is 5.00.
`O=C(C[C@H]1C/C=C\C[C@H](NC(=O)OCC2c3ccccc3-c3ccccc32)C(=O)OC[C@@H]2CCCN2C1=O)N[C@H](CO)Cc1ccccc1`: the IC50 was > 20 µM (inactive).
The same measure, in the same setting: to `CCOC(CN=c1nc(N(C)C)ss1)OCC` belongs > 20 µM (inactive).
Take `C#CC[N+](C)(C)CCCCCCCCCCCC`: the negative logarithm of the IC50 (pIC50) was 5.60.
On to `CNc1ccccc1C(C)(C)c1cc(-c2cccc(Br)c2)no1`, for which the pIC50 is 5.69.
On the same count and under the same terms, to `COc1cccc(CN(C)C(=O)c2cc(COc3ccc4ncccc4c3)on2)c1` belongs 5.27; to `Cc1cccc(CCN2C(N(C)C)=NC[C@@H]2CC(C)C)c1`, 4.99.
As to `CCCCc1ccc(NC(=O)C(=O)NCCN2CCN(Cc3ccc([N+](=O)[O-])cc3)CC2)cc1`, the pIC50 was 5.08.
Regarding `Cc1ccc(C)c(-c2csc(NC(=O)C3=COCCO3)n2)c1`, the negative-log IC50 (pIC50) was 5.20.
Same read-out and setting: with `Cc1cc(NC(=O)CSc2nc3c([nH]c4ccccc43)c(=O)n2-c2ccccc2F)no1` the figure was 4.86.
For `COc1ccc(CC(=O)Nc2cccc(S(=O)(=O)N3CCCCCC3)c2)cc1OC`, the pIC50 was 5.10.
`CCCCCCn1c(=O)c(C(=O)Nc2cnccn2)c(O)c2ccccc21`: the negative logarithm of the IC50 (pIC50) is 5.04.
As for `C[n+]1c2n(c3ccccc31)N=C(c1ccccc1)CS2`, the pIC50 is 5.19.
For `C/C(=N\NC(=O)C(=O)Nc1ccc(C)c(Cl)c1)c1ccncc1`, the pIC50 was 5.82.
As to `CCCCCCCOc1ccc(OC(=O)c2ccncc2)cc1`, the negative-log IC50 (pIC50) is 6.02.
As for `NC(=O)CC(NC(=O)c1ccccc1)c1ccc(N2CCCCCC2)c([N+](=O)[O-])c1` (stereo unspecified), the IC50 is > 20 µM (inactive).
In the case of `O=C(Nc1ccc(C(F)(F)F)cc1)C1CCN(S(=O)(=O)c2ccc(N3CCCC3=O)cc2)CC1`, the negative logarithm of the IC50 (pIC50) was 5.49.
Regarding `Cc1cc(C)c(C)c(S(=O)(=O)N2CCN(c3ncnc4ccccc34)CC2)c1C`, the pIC50 is 5.34.
For the compound `COc1ccc(C(C(=O)NC2CCCCC2)N(C(=O)CCl)c2ccc(Cl)cc2)cc1` (stereo unspecified), the pIC50 was 5.35.
The same measure, in the same setting: with `COCCn1c(CN2CCC(Cc3ccccc3)CC2)nc2c1c(=O)n(C)c(=O)n2C` the figure was 5.39; with `C(#Cc1ccccc1)C[N+]1(CC#Cc2cccc3ccccc23)CCCC1`, 5.44; with `CN1/C(=C\C(=O)COC(=O)CNC(=O)c2ccc3ccccc3c2)C(C)(C)c2ccccc21`, 5.01.
`Cc1cc(C)c(C(N)=O)c(SCC(=O)c2cc(C)n(-c3cc(C)on3)c2C)n1`: the negative logarithm of the IC50 (pIC50) is 5.32.
For `O=c1c2ccccc2nc2n1C(CSCc1cccc(C(F)(F)F)c1)CS2` (stereo unspecified), the pIC50 is 5.41.
On to `C/C(=N\Nc1ccc(Cl)nn1)c1ccccc1O`, for which the IC50 was > 20 µM (inactive).
As for `CCOc1ccc2[nH]c3c(N4CCN(C(=O)c5ccco5)CC4)ncnc3c2c1`, the pIC50 is 5.15.
Regarding `CC(C)CC(NC(=O)CCCNC(=O)CCC(=O)OC1O[C@H]2OC3(C)CC[C@H]4[C@H](C)CCC(C1C)C24OO3)C(=O)O` (stereo partly specified), the pIC50 is 6.21.
Consider `Cn1nc(CC(=O)NCc2ccc(C(F)(F)F)cc2)c2ccccc2c1=O`, for which the pIC50 is 5.18.
Still for that read-out and setting: with `Cc1ccc(NCC(=O)Nc2cccc(S(=O)(=O)N(C)C)c2)cc1S(=O)(=O)N1CCCCCC1` the figure was 4.84; with `COc1cc(C(=O)NC2CCN(C)CC2)ccc1Nc1ncc2c(n1)N(Cc1ccccc1)CCC(=O)N2C`, 5.89.
With `Cc1cc(Nc2ccc([N+](=O)[O-])cc2)c2ccccc2n1`, the IC50 is > 20 µM (inactive).
In the case of `O=C(c1cc2sccc2n1Cc1ccccc1)N1CCN(c2nc3ccccc3s2)CC1`, the pIC50 was 5.33.
On the same count and under the same terms, to `CCn1c(C)nc2cc(-c3nnc(-c4c(-c5ccccc5)noc4C)o3)ccc21` belongs 5.13; to `Cc1cc(/C=C2/SC(=S)N(c3ccc([N+](=O)[O-])cc3)C2=O)c(C)n1-c1cccnc1`, 6.18.
Still for that read-out and setting: with `CCOc1ccc(-n2c(O)c(/C=N/Nc3nc(C)cc(C)n3)c3ccccc3c2=O)cc1` the figure was 5.15.
`COc1ccccc1N1CCN(c2ncc(C(=O)N3CCN(c4cccc(Cl)c4)CC3)c3ccccc23)CC1`: the pIC50 was 5.21.
